# Legend:
# persian speedwell [1] = assay: Test Example 5: herbicidal effect by foliage application, plastic box (Table 20, symbol R); assay type: in vivo, Persian speedwell (Veronica persica); conditions: amount of applied herbicide 320 g/ha; foliage application after 14-day growth; evaluated three weeks after application
# Summary of the method: (§1)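 Sow seeds spot-wise in sterilized diluvial soil; cover with ~1.5 cm soil. Grow 14 days in greenhouse, 25° C. to 30° C. Spray foliage with emulsion diluted to predetermined amount. Rate effect after 3 weeks.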
# southern crabgrass [2] = assay: Test Example 4: herbicidal effect by soil treatment (Table 19, symbol F); assay type: in vivo, southern crabgrass (Digitaria ciliaris); conditions: amount of applied herbicide 320 g/ha
# Summary of the method: (§2)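 Soil-surface application: an emulsion agent diluted with water to the predetermined dose is sprayed uniformly over seeds lying under roughly 1.5 cm of sterilized diluvial soil. Boxes stay in a greenhouse at 25° C. to 30° C. Three weeks later, each species is graded on previously defined criteria.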
# wild oat [3] = assay: Test Example 4: herbicidal effect by soil treatment (Table 19, symbol I); assay type: in vivo, wild oat (Avena fatua); conditions: amount of applied herbicide 320 g/ha
# Summary of the method: as §2
# rice flat sedge = assay: Test Example 3: herbicidal effect by foliage application, Wagner pot (Table 18, symbol E); assay type: in vivo, rice flat sedge (Cyperus iria); conditions: 320 g/ha
# Summary of the method: (§3)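 Plants were sown in alluvial soil held under 0.1–0.5 cm standing water and grown 14 days in a greenhouse at 25–30 °C. An emulsifiable formulation, water-diluted to the set dose, was then sprayed onto the foliage, and effects were scored three weeks later using previously defined criteria.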
# Italian ryegrass [4] = assay: Test Example 5: herbicidal effect by foliage application, plastic box (Table 20, symbol K); assay type: in vivo, Italian ryegrass (Lolium multiflorum); conditions: amount of applied herbicide 320 g/ha; foliage application after 14-day growth; evaluated three weeks after application
# Summary of the method: as §1
# Chinese sprangletop = assay: Test Example 3: herbicidal effect by foliage application, Wagner pot (Table 18, symbol D); assay type: in vivo, chinese sprangletop (Leptochloa chinensis); conditions: 320 g/ha
# Summary of the method: as §3
# blackgrass [5] = assay: Test Example 4: herbicidal effect by soil treatment (Table 19, symbol J); assay type: in vivo, blackgrass (Alopecurus myosuroides); conditions: amount of applied herbicide 320 g/ha
# Summary of the method: as §2
# persian speedwell [6] = assay: Test Example 4: herbicidal effect by soil treatment (Table 19, symbol R); assay type: in vivo, Persian speedwell (Veronica persica); conditions: amount of applied herbicide 320 g/ha
# Summary of the method: as §2
# redroot pigweed [7] = assay: Test Example 4: herbicidal effect by soil treatment (Table 19, symbol N); assay type: in vivo, redroot pigweed (Amaranthus retroflexus); conditions: amount of applied herbicide 320 g/ha
# Summary of the method: as §2
# lambsquarters [8] = assay: Test Example 5: herbicidal effect by foliage application, plastic box (Table 20, symbol O); assay type: in vivo, lambsquarters (Chenopodium album); conditions: amount of applied herbicide 320 g/ha; foliage application after 14-day growth; evaluated three weeks after application
# Summary of the method: as §1
# chickweed [9] = assay: Test Example 5: herbicidal effect by foliage application, plastic box (Table 20, symbol P); assay type: in vivo, common chickweed (Stellaria media); conditions: amount of applied herbicide 320 g/ha; foliage application after 14-day growth; evaluated three weeks after application
# Summary of the method: as §1
# barnyard grass [10] = assay: Test Example 3: herbicidal effect by foliage application, Wagner pot (Table 18, symbol H); assay type: in vivo, barnyard grass (Echinochloa crus-galli); conditions: 320 g/ha
# Summary of the method: as §3
# Italian ryegrass [11] = assay: Test Example 4: herbicidal effect by soil treatment (Table 19, symbol K); assay type: in vivo, Italian ryegrass (Lolium multiflorum); conditions: amount of applied herbicide 320 g/ha
# Summary of the method: as §2
# windgrass [12] = assay: Test Example 4: herbicidal effect by soil treatment (Table 19, symbol L); assay type: in vivo, windgrass (Apera spica-venti); conditions: amount of applied herbicide 320 g/ha
# Summary of the method: as §2
# wild oat [13] = assay: Test Example 5: herbicidal effect by foliage application, plastic box (Table 20, symbol I); assay type: in vivo, wild oat (Avena fatua); conditions: amount of applied herbicide 320 g/ha; foliage application after 14-day growth; evaluated three weeks after application
# Summary of the method: as §1
# velvetleaf [14] = assay: Test Example 5: herbicidal effect by foliage application, plastic box (Table 20, symbol M); assay type: in vivo, velvetleaf (Abutilon theophrasti); conditions: amount of applied herbicide 320 g/ha; foliage application after 14-day growth; evaluated three weeks after application
# Summary of the method: as §1
# redroot pigweed [15] = assay: Test Example 5: herbicidal effect by foliage application, plastic box (Table 20, symbol N); assay type: in vivo, redroot pigweed (Amaranthus retroflexus); conditions: amount of applied herbicide 320 g/ha; foliage application after 14-day growth; evaluated three weeks after application
# Summary of the method: as §1
# green foxtail [16] = assay: Test Example 4: herbicidal effect by soil treatment (Table 19, symbol G); assay type: in vivo, green foxtail (Setaria viridis); conditions: amount of applied herbicide 320 g/ha
# Summary of the method: as §2
# barnyard grass [17] = assay: Test Example 5: herbicidal effect by foliage application, plastic box (Table 20, symbol H); assay type: in vivo, barnyard grass (Echinochloa crus-galli); conditions: amount of applied herbicide 320 g/ha; foliage application after 14-day growth; evaluated three weeks after application
# Summary of the method: as §1
# southern crabgrass [18] = assay: Test Example 5: herbicidal effect by foliage application, plastic box (Table 20, symbol F); assay type: in vivo, southern crabgrass (Digitaria ciliaris); conditions: amount of applied herbicide 320 g/ha; foliage application after 14-day growth; evaluated three weeks after application
# Summary of the method: as §1
# blackgrass [19] = assay: Test Example 5: herbicidal effect by foliage application, plastic box (Table 20, symbol J); assay type: in vivo, blackgrass (Alopecurus myosuroides); conditions: amount of applied herbicide 320 g/ha; foliage application after 14-day growth; evaluated three weeks after application
# Summary of the method: as §1
# barnyard grass [20] = assay: Test Example 4: herbicidal effect by soil treatment (Table 19, symbol H); assay type: in vivo, barnyard grass (Echinochloa crus-galli); conditions: amount of applied herbicide 320 g/ha
# Summary of the method: as §2
# velvetleaf [21] = assay: Test Example 4: herbicidal effect by soil treatment (Table 19, symbol M); assay type: in vivo, velvetleaf (Abutilon theophrasti); conditions: amount of applied herbicide 320 g/ha
# Summary of the method: as §2
# green foxtail [22] = assay: Test Example 5: herbicidal effect by foliage application, plastic box (Table 20, symbol G); assay type: in vivo, green foxtail (Setaria viridis); conditions: amount of applied herbicide 320 g/ha; foliage application after 14-day growth; evaluated three weeks after application
# Summary of the method: as §1
# chickweed [23] = assay: Test Example 4: herbicidal effect by soil treatment (Table 19, symbol P); assay type: in vivo, common chickweed (Stellaria media); conditions: amount of applied herbicide 320 g/ha
# Summary of the method: as §2
# windgrass [24] = assay: Test Example 5: herbicidal effect by foliage application, plastic box (Table 20, symbol L); assay type: in vivo, windgrass (Apera spica-venti); conditions: amount of applied herbicide 320 g/ha; foliage application after 14-day growth; evaluated three weeks after application
# Summary of the method: as §1
# lambsquarters [25] = assay: Test Example 4: herbicidal effect by soil treatment (Table 19, symbol O); assay type: in vivo, lambsquarters (Chenopodium album); conditions: amount of applied herbicide 320 g/ha
# Summary of the method: as §2
smiles,measurement,setting,value
CCSc1ccc(-c2sc3c(Cl)cccc3c2-c2c(O)c(C)nn(C)c2=O)cc1 [4-094],"Herbicidal effect by foliage application, R: persian speedwell",persian speedwell [1],5 (Herbicidal rate of 90% or more (almost completely withered))
same,"Herbicidal effect by soil treatment, F: southern crabgrass",southern crabgrass [2],0 (Herbicidal rate of 5% or less (almost no effect))
same,"Herbicidal effect by soil treatment, I: wild oat",wild oat [3],0 (Herbicidal rate of 5% or less (almost no effect))
same,herbicidal effect on rice flat sedge (E),rice flat sedge,4 (Herbicidal rate of 70% or more and less than 90%)
same,"Herbicidal effect by foliage application, K: Italian ryegrass",Italian ryegrass [4],4 (Herbicidal rate of 70% or more and less than 90%)
same,herbicidal effect on Chinese sprangletop (D),Chinese sprangletop,4 (Herbicidal rate of 70% or more and less than 90%)
same,"Herbicidal effect by soil treatment, J: blackgrass",blackgrass [5],0 (Herbicidal rate of 5% or less (almost no effect))
same,"Herbicidal effect by soil treatment, R: persian speedwell",persian speedwell [6],3 (Herbicidal rate of 40% or more and less than 70%)
same,"Herbicidal effect by soil treatment, N: redroot pigweed",redroot pigweed [7],5 (Herbicidal rate of 90% or more (almost completely withered))
same,"Herbicidal effect by foliage application, O: lambsquarters",lambsquarters [8],5 (Herbicidal rate of 90% or more (almost completely withered))
same,"Herbicidal effect by foliage application, P: chickweed",chickweed [9],5 (Herbicidal rate of 90% or more (almost completely withered))
same,herbicidal effect on barnyard grass (H),barnyard grass [10],5 (Herbicidal rate of 90% or more (almost completely withered))
same,"Herbicidal effect by soil treatment, K: Italian ryegrass",Italian ryegrass [11],2 (Herbicidal rate of 20% or more and less than 40%)
same,"Herbicidal effect by soil treatment, L: windgrass",windgrass [12],0 (Herbicidal rate of 5% or less (almost no effect))
same,"Herbicidal effect by foliage application, I: wild oat",wild oat [13],4 (Herbicidal rate of 70% or more and less than 90%)
same,"Herbicidal effect by foliage application, M: velvetleaf",velvetleaf [14],4 (Herbicidal rate of 70% or more and less than 90%)
same,"Herbicidal effect by foliage application, N: redroot pigweed",redroot pigweed [15],5 (Herbicidal rate of 90% or more (almost completely withered))
same,"Herbicidal effect by soil treatment, G: green foxtail",green foxtail [16],0 (Herbicidal rate of 5% or less (almost no effect))
same,"Herbicidal effect by foliage application, H: barnyard grass",barnyard grass [17],3 (Herbicidal rate of 40% or more and less than 70%)
same,"Herbicidal effect by foliage application, F: southern crabgrass",southern crabgrass [18],0 (Herbicidal rate of 5% or less (almost no effect))
same,"Herbicidal effect by foliage application, J: blackgrass",blackgrass [19],5 (Herbicidal rate of 90% or more (almost completely withered))
same,"Herbicidal effect by soil treatment, H: barnyard grass",barnyard grass [20],0 (Herbicidal rate of 5% or less (almost no effect))
same,"Herbicidal effect by soil treatment, M: velvetleaf",velvetleaf [21],0 (Herbicidal rate of 5% or less (almost no effect))
same,"Herbicidal effect by foliage application, G: green foxtail",green foxtail [22],4 (Herbicidal rate of 70% or more and less than 90%)
same,"Herbicidal effect by soil treatment, P: chickweed",chickweed [23],0 (Herbicidal rate of 5% or less (almost no effect))
same,"Herbicidal effect by foliage application, L: windgrass",windgrass [24],5 (Herbicidal rate of 90% or more (almost completely withered))
same,"Herbicidal effect by soil treatment, O: lambsquarters",lambsquarters [25],3 (Herbicidal rate of 40% or more and less than 70%)
